Earlier results as cited in patent US7098224B2, “Hydroxylansoprazole methods” (Sepracor Inc., priority 1998, dated 2006).

Tested on: isolated parietal cells
Conditions: Inatomi et al., Yakuri to Chiryo 19, 477–486 (1991)

Row | SMILES | inhibition of acid formation in isolated parietal cells (result in words) | IC50 (read-out: inhibited acid formation in isolated parietal cells, IC50) [nM]
1 | Cc1c(OCC(F)(F)F)ccnc1C[S+]([O-])c1nc2cc(O)ccc2[nH]1 (racemic) [racemic hydroxylansoprazole, 2[[[3-methyl-4-(2,2,2-trifluoroethoxy)-2-pyridinyl]methyl]sulfinyl]-1 H-benzimidazol-5-ol] | did not inhibit acid formation | –
2 | Cc1c(OCC(F)(F)F)ccnc1C[S+]([O-])c1nc2ccccc2[nH]1 (racemic) [lansoprazole, Lansoprazole] | – | 90
